Results as given in US20210040073A1, “AZABICYCLO-SUBSTITUTED TRIAZOLE DERIVATIVE, PREPARATION METHOD THEREOF, AND APPLICATION OF SAME IN MEDICINE” (Jiangsu Hengrui Medicine Co., Ltd., priority 2016, published 2021).

Tests used:
Assay type in all cases: cell-based
human V1bR = target: T1, human V1bR (Homo sapiens, UniProt P47901); assay: Inhibition activity on human V1bR (Fluo-4 calcium assay, HEK293/human V1bR pool cells, vasopressin 3 nM); settings: calcium signal
T1 construct: expressed in transfected cells; host or cells: HEK293 (G418-selected pool)
T1 sequence (P47901 1-424): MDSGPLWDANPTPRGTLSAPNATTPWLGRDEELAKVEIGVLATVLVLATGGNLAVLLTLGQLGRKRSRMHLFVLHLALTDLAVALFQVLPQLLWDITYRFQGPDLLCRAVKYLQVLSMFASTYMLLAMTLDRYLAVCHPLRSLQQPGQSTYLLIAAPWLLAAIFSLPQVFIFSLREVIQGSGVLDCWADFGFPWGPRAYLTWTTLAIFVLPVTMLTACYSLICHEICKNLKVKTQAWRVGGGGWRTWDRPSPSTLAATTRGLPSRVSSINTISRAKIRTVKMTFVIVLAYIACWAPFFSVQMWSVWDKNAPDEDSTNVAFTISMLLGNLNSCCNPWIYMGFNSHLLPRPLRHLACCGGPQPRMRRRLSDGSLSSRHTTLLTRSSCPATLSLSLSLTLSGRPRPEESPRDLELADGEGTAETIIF
Description: The inhibition effect of the compounds of the present invention on the activity of human V1bR protein expressed in HEK293/human V1bR cells was determined by the following experimental method:
The pcDNA3.1-V1bR plasmid was transferred into HEK293 cells with the Lipofectamine® 3000 transfection reagent; G418 was added on the next day, and the HEK293/human V1bR pool cell lines were obtained.
(§1) HEK293/human V1bR pool cells were inoculated in a 96-well plate with an inoculation density of 25,000 cells/well one day in advance. On the next day, a loading buffer containing Fluo-4 dye was formulated using the reagents in the Fluo-4 NW calcium assay kit, and the culture medium was then removed; 100 μl of the loading buffer containing Fluo-4 dye were added to each well, and the plate was incubated at 37° C. for 30 minutes. After that, the plate was moved to room temperature and equilibrated for 10 minutes. The compounds were formulated into concentration gradients of 10^6, 10^5, 10^4, 10^3, 10^2 and 10^1 nM. 1 μl of the compounds in each concentration was added to each well, and the plate was incubated at room temperature for 10 minutes. […] IC50 values of the compounds were calculated by Graphpad prism software using fluorescence signals corresponding to different concentrations.

human V1aR = target: T2, human V1aR (Homo sapiens, UniProt P37288); assay: Inhibition activity on human V1aR (Fluo-4 calcium assay, HEK293/human V1aR stably transfected cells, vasopressin 3 nM); settings: calcium signal
T2 construct: expressed in transfected cells
Description: The inhibition effect of the compounds of the present invention on the activity of human V1aR protein expressed in HEK293/human V1aR stably transfected cells was determined by the following experimental method:
The pcDNA3.1-V1aR plasmid was transferred into HEK293 cells with the Lipofectamine® 3000 transfection reagent; G418 was added on the next day to screen, and monoclonal cell lines were selected.
as §1, with “V1aR stably transfected” for “V1bR pool”
The inhibition activity of the compounds of the present invention on human V1aR was determined by the above test, and the obtained IC50 values are shown in Table 2.

human V2R = target: T3, human V2R (Homo sapiens, UniProt P30518); assay: Inhibition activity on human V2R (cAMP HTRF assay, HEK293/human V2R pool cells, vasopressin)
T3 construct: expressed in transfected cells; host or cells: HEK293 (G418-selected pool)
Description: The inhibition effect of the compounds of the present invention on the activity of human V2R protein expressed in HEK293/human V2R cells was determined by the following experimental method:
The pcDNA3.1-V2R plasmid was transferred into HEK293 cells with the Lipofectamine® 3000 transfection reagent; G418 was added on the next day, and the HEK293/human V2R pool cell lines were obtained.
HEK293/human V2R pool cells were digested with the cell dissociation solution (enzyme-free), thereby dissociating the cells from the cell culture dish into individual cells. After completion, the cell solution was blown well, and centrifuged to remove the supernatant. The cells were re-suspended in the test buffer 1 (1×HBSS+20 mM HEPES+0.1% BSA) and counted. The cell density was adjusted to 1250 cells/5 μl, i.e., 2.5*10^5/ml.
The compounds were formulated into a series of concentrations of 20 mM, 6.67 mM, 2.22 mM, 0.74 mM, 0.25 mM, 0.08 mM, 27.4 μM, 9.14 μM, 3.05 μM, 1.02 μM, 0.34 μM and 0 μM (DMSO) with pure DMSO. The compounds were then formulated into a 4-fold use concentration with the test buffer 2 (test buffer 1+1 mM IBMX).
Agonist: 460 μM vasopressin was used as the mother liquor, formulated as a 2 μM solution with DMSO, which was then diluted to a 0.5 nM solution with the test buffer 2.
Standard: The first point was 20 μl of a stock solution (2848 nM), which was diluted successively to a total of eleven concentrations in a 4-fold concentration gradient with the test buffer 1 from the second point.
1. The well-mixed cells were added to a 384-well plate (5 μl/well) without changing the tip.
2. The test compounds and positive compound formulated were added (2.5 μl/well), and the tips were changed.
3. The plate was centrifuged at 1000 rpm for 1 min, shaken for 30 sec to mix well, and incubated at room temperature for 30 min.
4. The standard curve wells were added with the test buffer 2 (5 μl/well).
5. The agonist formulated was added (2.5 μl/well), and the tips were changed; the plate was centrifuged at 1000 rpm for 1 min, shaken for 30 sec to mix well, and incubated at room temperature for 30 min.
6. cAMP-d2 (a component in the cAMP dynamic 2 kit) and Anti-cAMP-Eu-Cryptate (a component in the cAMP dynamic 2 kit) were formulated in the dark, which were then mixed well with cAMP lysate (a component in the cAMP dynamic 2 kit) in a ratio of 1:4. Each well was added with the formulated cAMP-d2 solution (5 μl/well), followed by addition of Anti-cAMP-Eu-Cryptate (5 μl/well). The plate was shaken for 30 sec to mix well, and incubated in the dark at room temperature for 1 h.
4) Plate reading: The HTRF signals were read by the PheraStar multi-function microplate reader.
The data in this test was processed using the data processing software Graphpad Prism.
The inhibition activity of the compounds of the present invention on human V2R was determined by the above test, and the obtained IC50 values are shown in Table 4.

T3 sequence (P30518 whole entry): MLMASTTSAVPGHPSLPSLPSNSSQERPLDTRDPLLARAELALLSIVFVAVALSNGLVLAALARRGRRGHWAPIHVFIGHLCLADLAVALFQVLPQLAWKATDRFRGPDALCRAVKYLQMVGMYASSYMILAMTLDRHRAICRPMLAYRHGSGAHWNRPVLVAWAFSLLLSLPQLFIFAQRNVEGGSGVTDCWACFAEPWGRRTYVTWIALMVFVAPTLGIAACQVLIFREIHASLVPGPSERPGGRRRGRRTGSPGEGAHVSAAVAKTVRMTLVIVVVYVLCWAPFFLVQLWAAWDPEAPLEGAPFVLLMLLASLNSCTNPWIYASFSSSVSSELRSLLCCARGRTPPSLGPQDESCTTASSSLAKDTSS
T2 sequence (P37288 whole entry): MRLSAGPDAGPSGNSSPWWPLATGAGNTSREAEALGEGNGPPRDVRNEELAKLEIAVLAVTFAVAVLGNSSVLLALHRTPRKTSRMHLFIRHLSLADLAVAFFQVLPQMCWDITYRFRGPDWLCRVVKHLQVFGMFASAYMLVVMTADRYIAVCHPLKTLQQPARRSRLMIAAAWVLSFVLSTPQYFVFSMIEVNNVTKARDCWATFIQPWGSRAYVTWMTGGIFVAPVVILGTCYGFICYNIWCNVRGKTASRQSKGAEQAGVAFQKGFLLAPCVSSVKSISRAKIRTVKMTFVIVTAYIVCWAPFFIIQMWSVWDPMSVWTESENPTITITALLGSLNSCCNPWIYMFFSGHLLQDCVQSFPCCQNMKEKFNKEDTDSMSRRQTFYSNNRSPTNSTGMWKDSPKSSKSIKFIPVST

IC50 (human V1bR) [µM]	IC50 (human V1aR) [µM]	IC50 (human V2R) [µM]	Compound
24.5	1	21.4	COc1ccc(-n2c(COCCF)nnc2N2C[C@@H]3C[C@]3(c3ccc(F)cc3Cl)C2)cn1 [Example 1, (1S,5R)-1-(2-Chloro-4-fluorophenyl)-3-(5-((2-fluoroethoxy)methyl)-4-(6-methoxypyridin-3-yl)-4H-1,2,4-triazol-3-yl)-3-azabicyclo[3.1.0]hexane]
59.4	3.8	25.7	COCc1nnc(N2C[C@@H]3C[C@]3(c3cccc(F)c3Cl)C2)n1-c1ccc(OC)nc1 [Example 4, (1S,5R)-1-(2-Chloro-3-fluorophenyl)-3-(5-(methoxymethyl)-4-(6-methoxypyridin-3-yl)-4H-1,2,4-triazol-3-yl)-3-azabicyclo[3.1.0]hexane]

The next lines start with the molecule.

Compound	IC50 (human V1bR) [µM]	IC50 (human V1aR) [µM]	IC50 (human V2R) [µM]
CCOCc1nnc(N2C[C@@H]3C[C@]3(c3ccc(F)cc3Cl)C2)n1-c1ccc(OC)nc1 [Example 6, (1S,5R)-1-(2-Chloro-4-fluorophenyl)-3-(5-(ethoxymethyl)-4-(6-methoxypyridin-3-yl)-4H-1,2,4-triazol-3-yl)-3-azabicyclo[3.1.0]hexane]	27.9	1.7	7.3
COCc1nnc(N2C[C@@H]3C[C@]3(c3ccc(F)cc3Cl)C2)n1-c1ccc(OC)nc1 [Example 9, (1S,5R)-1-(2-Chloro-4-fluorophenyl)-3-(5-(methoxymethyl)-4-(6-methoxypyridin-3-yl)-4H-1,2,4-triazol-3-yl)-3-azabicyclo[3.1.0]hexane]	37.6	2.9	32.6
COc1ccc(-n2c(N3C[C@@H]4C[C@]4(c4ccc(F)cc4Cl)C3)nnc2C(F)(F)F)cn1 [Example 12, (1S,5R)-1-(2-Chloro-4-fluorophenyl)-3-(4-(6-methoxypyridin-3-yl)-5-(trifluoromethyl)-4H-1,2,4-triazol-3-yl)-3-azabicyclo[3.1.0]hexane]	11.7	3.6	29.5
